{"source": "patent EP2921176A2", "about": "“PHARMACEUTICAL COMPOSITION FOR TREATMENT OF PROSTATIC HYPERPLASIA” (priority 2012, dated 2014)", "key": {"[1]": {"system": "prostate gland (PG) in rats with the benign prostatic hyperplasia (BPH)", "format": "in vivo", "details": "for Mass of PG, mg At end of experiment / Mass of PG, mg Initial / MF PG (mass factor of the PG): rats with BPH", "procedure": "The effect of the new mixtures of peptides on the mass of the prostate of rats in the model of benign prostate hyperplasia caused by testosterone propionate, was studied on 98 white non-pedigree male rats (mass 220-280 g at the beginning of the experiment), and 10 white non- pedigree male rats with a mass of 22-26 g (acute toxicity was assessed in those animals in a separate series o experiments).\nJ. Med. Food., 2007, Vol. 10, No 4, p. 628-635; Liu H.P., Chen G.L., Liu P., Xu X.P. «Amlodipine alone or combined with terazosin improves lower urinary tract disorder in rat models of benign prostatic hyperplasia or detrusor instability: focus on detrusor overactivity\". BJU Int., 2009, Vol. 104, No 11, p. 1752-1757).\n(§1) The animals in those groups were injected intramuscularly (i/m) a mixture of peptides in doses of 50, 150 and 600 mcg/kg/day, alpha1-adrenergic blocker Doxazosin (Zoxon, Zentiva a.s., Czech Republic) in the dose of 1 mg/kg/day and 2nd type 5 alpha-reductase inhibitor Finasteride (Proscar, Merck Sharp & Dohme, The Netherlands) in the dose of 10 mg/kg/day in the stomach (via an intragastral sonde) for 18 days (from day 4), and also the well-known homeopathic drug Prostatine (OOO «Homeofarma», Russia) with 5 pellets into the stomach for 18 days. The rats in the control group received intramuscularly only an isotonic solution of sodium chloride (NaCl) in equivolume quantities.\nExtraction of the prostatic gland (PG) for morphological (light-optical) analysis was done both before and after the reproduction of BPH (on days 22 and 23). The rats were decapitated under general anesthesia with ether, following which the prostatic gland was extracted and weighed (analytical balance «Sartogosm LV 120-A», Russia, inaccuracy-0.5 mg)."}, "[2]": {"system": "prostate gland of rats with BPH", "experiment": "Morphological and morphometric (light-optical) analysis of the prostate gland in the rat BPH model", "format": "in vivo", "parameters": "key to COLL (score estimate of the content of collagen in the stroma, median): 0: Absent in the field of vision; 1: Thin friable fibers; 2: Thin oriented bunches; 3: Dense interlayers; 4: Zones of fibrosis", "details": "for EPIT (volume fraction of the epithelium) / LUMEN (volume fraction of acinar lumens) / STROMA (volume fraction of stroma): mean ± standard error of the mean", "excerpt": "The material was subjected to standard histological processing in accordance with Example 2. Sections were stained according to Van Gieson, as well as with hematoxyline and eosin. In addition to the morphological description of the preparations, a quantitative analysis of the most important morphological parameters of the PG (Table 2) to assess the dynamics of morphological changes. The prostate's functional status (fibrosis, epithelium hyperplasia, retention of the prostatic fluid in acinuses) can be assessed using the epithelium/stroma and epithelium/duct indices. Table 2. Classes of morphological analysis\nThe morphometric analysis was conducted using a Leica DM2500 microscope fitted with a digital photographic camera. The digital images were used to assess structural changes in PG tissues. Volume fractions of acinuses, stroma and epithelium were defined by point counting. Scoring was used to more accurately determine the quantity of collagen fibers because of their small percentage share (around 1-2%) (Table 3). Table 3. The criteria for scoring the quantity of collagen fibers\nA comparison of the groups in terms of different parameters using the Kruskal-Wallis one-way analysis of variance by ranks, Dan and Wilcoxon-Mann-Whitney test data were obtained on intergroup differences at the set level of significance of p < 0,05. […]\nas §1\nThe material was subjected to standard histological processing. For light-optical analysis, pieces of the PG were fixed with 10% neutral formalin, following which histological sections were prepared. The sections were stained according to Van Gieson, and also with hematoxyline and eosin. In addition to morphological description of the microsections, a quantitative evaluation of the most important morphological parameters of the PG for the purpose of objective assessment of the dynamics of morphological changes. A Leica DM2500 microscope with a digital photographic camera was used for morphometric analysis. The digital images were used to assess structural changes in the PG's tissues."}, "[3]": {"system": "prostate", "details": "after 1 to 3 months; cited from earlier work"}, "[4]": {"details": "1 mg/kg/day in stomach for 18 days"}, "[5]": {"details": "10 mg/kg/day in stomach for 18 days"}}, "note": "Where two headings read alike, the source gives them in different places."}
{"compound": "COc1cc2nc(N3CCN(C(=O)C4COc5ccccc5O4)CC3)nc(N)c2cc1OC", "note": "(stereo not drawn) [Doxazosin]", "values": [{"measurement": "Mass of PG, mg At end of experiment", "setting": "[1]; [4]", "value": "7.7e+10 ± 7e+09", "unit": "pg"}, {"measurement": "Mass of PG, mg Initial", "setting": "[1]; [4]", "value": "2.38e+11 ± 1.8e+10", "unit": "pg"}, {"measurement": "MF PG (mass factor of the PG)", "setting": "[1]; 1 mg/kg/day in the stomach for 18 days", "value": "virtually unreduced"}, {"measurement": "COLL (score estimate of the content of collagen in the stroma, median)", "setting": "[2]; [4]", "value": 2}, {"measurement": "EPIT/LUMEN (ratio of share of epithelium to share of acinar lumens)", "setting": "[2]; [4]", "value": "36.62 ± 1.19"}, {"measurement": "EPIT/STR (ratio of share of epithelium to share of stroma)", "setting": "[2]; [4]", "value": "75.55 ± 1.34"}, {"measurement": "morphological picture of stroma", "setting": "[2]; [4]", "value": "Inflammation and edema were completely absent in the Doxazosin group, but there were zones of fibrosis"}, {"measurement": "structure (morphology) of epithelium", "setting": "[2]; [4]", "value": "acinuses covered with epithelium with normal morphology alternated with acinuses with hyperplastic epithelium"}, {"measurement": "EPIT (volume fraction of the epithelium)", "setting": "[2]; [4]", "value": "19.79 ± 0.84", "unit": "%"}, {"measurement": "LUMEN (volume fraction of acinar lumens)", "setting": "[2]; [4]", "value": "54.03 ± 1.05", "unit": "%"}, {"measurement": "STROMA (volume fraction of stroma)", "setting": "[2]; [4]", "value": "26.19 ± 0.93", "unit": "%"}]}
{"compound": "C[C@]12C=CC(=O)N[C@@H]1CC[C@@H]1[C@@H]2CC[C@]2(C)[C@@H](C(=O)Nc3cc(C(F)(F)F)ccc3C(F)(F)F)CC[C@@H]12", "note": "[Dutasteride]", "values": [{"measurement": "reduction of the size of the prostate", "setting": "[3]", "value": "more than 20%"}]}
{"compound": "CC(C)(C)NC(=O)[C@H]1CC[C@H]2[C@@H]3CC[C@H]4NC(=O)C=C[C@]4(C)[C@H]3CC[C@]12C", "note": "[Finasteride]", "values": [{"measurement": "reduced the mass of the PG (times, compared to the control)", "setting": "[1]; 10 mg/kg/day in stomach for 18 days, p<0,05", "value": 1.4, "unit": "times"}, {"measurement": "MF PG (mass factor of the PG)", "setting": "[1]; [5]", "value": "65±5 mg/100 r mass of the rat"}, {"measurement": "Mass of PG, mg At end of experiment", "setting": "[1]; [5]", "value": "6.5e+10 ± 5e+09", "unit": "pg"}, {"measurement": "Mass of PG, mg Initial", "setting": "[1]; [5]", "value": "1.99e+11 ± 1.4e+10", "unit": "pg"}, {"measurement": "COLL (score estimate of the content of collagen in the stroma, median)", "setting": "[2]; [5]", "value": 1}, {"measurement": "EPIT/LUMEN (ratio of share of epithelium to share of acinar lumens)", "setting": "[2]; [5]", "value": "47.31 ± 1.49"}, {"measurement": "EPIT/STR (ratio of share of epithelium to share of stroma)", "setting": "[2]; [5]", "value": "53.41 ± 1.55"}, {"measurement": "morphological picture of stroma", "setting": "[2]; [5]", "value": "highly edemous"}, {"measurement": "structure (morphology) of epithelium", "setting": "[2]; [5]", "value": "caused injury and death of epithelial cells"}, {"measurement": "EPIT (volume fraction of the epithelium)", "setting": "[2]; [5]", "value": "20.06 ± 0.95", "unit": "%"}, {"measurement": "LUMEN (volume fraction of acinar lumens)", "setting": "[2]; [5]", "value": "42.40 ± 1.17", "unit": "%"}, {"measurement": "STROMA (volume fraction of stroma)", "setting": "[2]; [5]", "value": "37.55 ± 1.14", "unit": "%"}]}
